27 compounds from US20230102554A1 (GB002, INC., priority 2019, published 2023) can be followed below.

The target of test [1] is T1, Human PDGFRα, cytoplasmic domain (GST-PDGFRα) (Homo sapiens, UniProt P16234).
T1 construct: made in house
In words: Human PDGFRα biochemical inhibition assay (off-chip Mobility Shift Assay).

In test [2] the target is T2, Human PDGFRβ, cytoplasmic domain (GST-PDGFRβ) (Homo sapiens, UniProt P09619).
T2 construct: made in house
Briefly: Human PDGFRβ biochemical inhibition assay (off-chip Mobility Shift Assay). In outline:
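GST-tagged cytoplasmic domain (aa 557-1106) from baculovirus was incubated 1 h at room temperature with compound, CSKtide, ATP at Km and Mg²⁺ in HEPES buffer, pH 7.5. Phosphorylated and unphosphorylated peptide were separated by off-chip mobility shift, and the product ratio P/(P+S) gave percent inhibition.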

T1 sequence (P16234 550-1089 T674I): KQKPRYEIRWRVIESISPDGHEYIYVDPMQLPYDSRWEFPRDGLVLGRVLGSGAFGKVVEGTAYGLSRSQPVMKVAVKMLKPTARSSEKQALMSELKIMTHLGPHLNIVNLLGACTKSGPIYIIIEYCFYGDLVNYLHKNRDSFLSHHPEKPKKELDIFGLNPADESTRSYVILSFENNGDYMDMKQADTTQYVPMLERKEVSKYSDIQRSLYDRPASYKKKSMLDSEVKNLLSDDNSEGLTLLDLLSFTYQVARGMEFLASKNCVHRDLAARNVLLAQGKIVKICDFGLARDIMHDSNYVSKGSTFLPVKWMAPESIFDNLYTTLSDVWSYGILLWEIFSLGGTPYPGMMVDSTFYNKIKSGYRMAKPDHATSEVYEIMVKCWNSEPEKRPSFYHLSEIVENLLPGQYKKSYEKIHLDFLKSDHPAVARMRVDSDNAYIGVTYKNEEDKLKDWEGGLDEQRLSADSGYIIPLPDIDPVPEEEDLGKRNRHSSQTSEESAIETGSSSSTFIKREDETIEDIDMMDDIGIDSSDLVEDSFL
T2 sequence (P09619 with tags, fused parts or gaps): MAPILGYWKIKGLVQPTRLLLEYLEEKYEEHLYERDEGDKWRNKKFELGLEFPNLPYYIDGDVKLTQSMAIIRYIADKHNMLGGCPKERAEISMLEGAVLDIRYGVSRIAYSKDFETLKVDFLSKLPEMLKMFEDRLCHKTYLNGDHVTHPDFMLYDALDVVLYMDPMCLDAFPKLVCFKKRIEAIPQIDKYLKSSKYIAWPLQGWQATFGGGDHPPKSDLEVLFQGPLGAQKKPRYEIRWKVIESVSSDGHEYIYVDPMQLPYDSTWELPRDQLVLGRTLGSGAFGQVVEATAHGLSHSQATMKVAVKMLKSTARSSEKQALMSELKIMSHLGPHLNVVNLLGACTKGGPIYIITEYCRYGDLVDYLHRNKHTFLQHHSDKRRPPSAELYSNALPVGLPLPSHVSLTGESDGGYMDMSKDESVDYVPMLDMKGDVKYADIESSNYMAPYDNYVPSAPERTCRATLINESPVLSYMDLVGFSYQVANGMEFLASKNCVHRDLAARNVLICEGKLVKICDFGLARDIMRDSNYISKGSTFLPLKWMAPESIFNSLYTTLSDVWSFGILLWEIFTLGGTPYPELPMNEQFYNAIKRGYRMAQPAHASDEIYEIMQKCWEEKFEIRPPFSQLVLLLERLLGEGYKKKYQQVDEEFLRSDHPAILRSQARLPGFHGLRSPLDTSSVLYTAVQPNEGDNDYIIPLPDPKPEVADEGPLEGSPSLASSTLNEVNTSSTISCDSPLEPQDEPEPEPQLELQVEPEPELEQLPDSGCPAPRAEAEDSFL

Take `CCn1cc2ncc(N[C@@H](C)c3cccc(NC(=O)c4ccc(CN5CC[C@H](O)C5)c(Cl)c4)c3)nc2n1` [Compound 494, 3-chloro-N-(3-((5)-1-((2-ethyl-2H-pyrazolo[3,4-b]pyrazin-6-yl)amino)ethyl)phenyl)-4-(((S)-3-hydroxypyrrolidin-1-yl)methyl) benzamide]: the IC50 in test [1] and in test [2] was below 300 nM throughout.

Consider `CCc1ncc(C(=O)Nc2cccc([C@H](C)Nc3cnc4cnn(C)c4n3)c2)cc1C` [Compound 233, (S)-6-ethyl-5-methyl-N-(3-(1-((1-methyl-1H-pyrazolo[3,4-b]pyrazin-6-yl)amino)ethyl)phenyl)nicotinamide], for which the IC50 in test [1] and in test [2] was below 300 nM each time.

Take `CCn1cc2ncc(N[C@@H](C)c3cc(NC(=O)c4cc(F)c(CN5CC[C@@H](O)C5)c(Cl)c4)ccc3C)nc2n1` [Compound 521, 3-chloro-N-(3-((S)-1-((2-ethyl-2H-pyrazolo[3,4-b]pyrazin-6-yl)amino)ethyl)-4-methylphenyl)-5-fluoro-4-(((R)-3-hydroxypyrrolidin-1-yl)methyl) benzamide]: the IC50 in test [1] and in test [2] was below 300 nM each time.

On to `Cc1n[nH]c2ncc(N[C@@H](C)c3cccc(NC(=O)c4ccc(OC(F)(F)F)nc4)c3)nc12` [Compound 536, (S)-N-(3-(1-((3-methyl-1H-pyrazolo[3,4-b]pyrazin-5-yl)amino)ethyl)phenyl)-6-(trifluoromethoxy)nicotinamide], for which the IC50 in test [1] and in test [2] was below 300 nM each time.

As to `CCNc1ccc(C(=O)Nc2cccc([C@H](C)Nc3cnc4cn(CC)nc4n3)c2)cn1` [Compound 394, (S)-N-(3-(1-((2-ethyl-2H-pyrazolo[3,4-b]pyrazin-6-yl)amino)ethyl)phenyl)-6-(ethylamino)nicotinamide], the IC50 in test [1] is below 300 nM; in test [2], at least 1000 nM.

Consider `C[C@H](Nc1cnc2[nH]cc(-c3cnn(C)c3)c2n1)c1cccc(NC(=O)c2cnc(C3CC3)s2)c1` [Compound 578, (S)-2-cyclopropyl-N-(3-(1-((7-(1-methyl-1H-pyrazol-4-yl)-5H-pyrrolo[2,3-b]pyrazin-2-yl)amino)ethyl)phenyl)thiazole-5-carboxamide], for which the concentration for half-maximal inhibition (IC50) in test [1] and in test [2] was below 300 nM each time.

Consider `C[C@H](Nc1cnc2cn[nH]c2n1)c1cccc(NC(=O)c2ccc(C(F)(F)F)nc2)c1` [Compound 99, (S)-N-(3-(1-((1H-pyrazolo[3,4 b]pyrazin-6-yl)amino)ethyl)phenyl)-6-(trifluoromethyl) nicotinamide], for which the IC50 in test [1] and in test [2] was below 300 nM throughout.

`CCn1cc2ncc(N[C@@H](C)c3cccc(NC(=O)c4ccc(CN5CC[C@@H](F)C5)c(Cl)c4)c3)nc2n1` [Compound 464, 3-chloro-N-(3-((S)-1-((2-ethyl-2H-pyrazolo[3,4-b]pyrazin-6-yl)amino)ethyl)phenyl)-4-(((R)-3-fluoropyrrolidin-1-yl)methyl) benzamide]: the IC50 in test [1] and in test [2] was below 300 nM in each case.

Turning to `CCn1cc2ncc(N[C@@H](C)c3cccc(NC(=O)c4ccc(CN5CC6(C5)CC6(F)F)c(C)c4)c3)nc2n1` [Compound 461], the figures for the IC50 in test [1] and in test [2] were below 300 nM and 300 to 1000 nM, respectively.

As for `C[C@H](Nc1cnc2cnn(C)c2n1)c1cccc(NC(=O)c2cncc(S(C)(=O)=O)c2)c1` [Compound 227, (S)-N-(3-(1-((1-methyl-1H-pyrazolo[3,4-b]pyrazin-6-yl)amino)ethyl)phenyl)-5-(methylsulfonyl)nicotinamide], the half-maximal inhibitory concentration (IC50) in test [1] and in test [2] was below 300 nM each time.

For `Cc1cncc(C(=O)Nc2cccc([C@H](C)Nc3cnc4ccn(CCO)c4n3)c2)c1` [Compound 83, (S)-N-(3-(1-((5-(2-hydroxyethyl)-5H-pyrrolo[2,3-6]pyrazin-3-yl)amino)ethyl)phenyl)-5-methylnicotinamide], the figures for the IC50 in test [1] and in test [2] were below 300 nM and at least 1000 nM, respectively.

With `Cc1cncc(C(=O)Nc2cccc([C@H](C)Nc3cnc4cc(C)oc4n3)c2)c1` [Compound 17, (S)-5-methyl-N-(3-(1-((6-methylfuro[2,3-b]pyrazin-3-yl)amino)ethyl)phenyl)nicotinamide], the IC50 in test [1] and in test [2] was below 300 nM throughout.

In the case of `Cc1cncc(C(=O)Nc2cccc([C@H](C)Nc3cncc4c3ccn4-c3cnn(C)c3)c2)c1` [Compound 748, (S)-5-methyl-N-(3-(1-((1-(1-methyl-1H-pyrazol-4-yl)-1H-pyrrolo[2,3-c]pyridin-4-yl)amino)ethyl)phenyl) nicotinamide], the figures for the IC50 in test [1] and in test [2] were below 300 nM and 300 to 1000 nM, respectively.

Regarding `CCn1cc2ncc(N[C@@H](C)c3cccc(NC(=O)c4ccc(CN5CCCC5)c(C(F)(F)F)c4)c3)nc2n1` [Compound 425, (S)-N-(3-(1-((2-ethyl-2H-pyrazolo[3,4-b]pyrazin-6-yl)amino)ethyl)phenyl)-4-(pyrrolidin-1-ylmethyl)-3-(trifluoromethyl)benzamide], the IC50 in test [1] and in test [2] was below 300 nM throughout.

As to `CCn1cc2ncc(N[C@@H](C)c3cccc(NC(=O)c4cnc(N5CCOCC5)s4)c3)nc2n1` [Compound 339, (S)-N-(3-(1-((2-ethyl-2H-pyrazolo[3,4-b]pyrazin-6-yl)amino)ethyl)phenyl)-2-morpholinothiazole-5-carboxamide], the IC50 was below 300 nM in test [1] and 300 to 1000 nM in test [2].

Turning to `C[C@H](Nc1cnc2[nH]cc(-c3cnn(C)c3)c2n1)c1cccc(NC(=O)[C@@H]2C[C@H]2C(F)(F)F)c1` [Compound 589, (1R,2R)-N-(3-((S)-1-((7-(1-methyl-1H-pyrazol-4-yl)-5H-pyrrolo[2,3-b]pyrazin-2-yl)amino)ethyl)phenyl)-2-(trifluoromethyl)cyclopropane-1-carboxamide], the IC50 in test [1] is at least 1000 nM; in test [2] it was 300 to 1000 nM.

With `Cc1cncc(C(=O)Nc2cccc([C@H](C)Nc3cnc4[nH]c(=O)n(C)c4n3)c2)c1` [Compound 12, (S)-5-methyl-N-(3-(1-((3-methyl-2-oxo-2,3-dihydro-1H-imidazo[4,5-b]pyrazin-5-yl)amino)ethyl)phenyl)nicotinamide], the IC50 in test [1] and in test [2] was below 300 nM each time.

Consider `CCn1cc2ncc(N[C@@H](C)c3cc(NC(=O)Cc4cc(C)c(C)cn4)ccc3C)nc2n1` [Compound 694, (S)-2-(4,5-dimethylpyridin-2-yl)-N-(3-(1-((2-ethyl-2H-pyrazolo[3,4-b]pyrazin-6-yl)amino)ethyl)-4-methylphenyl) acetamide], for which the IC50 in test [1] and in test [2] was below 300 nM each time.

`Cc1c[nH]c2ncc(N[C@@H](C)c3cccc(NC(=O)c4cnn(CCF)c4)c3)nc12` [Compound 575, (S)-1-(2-fluoroethyl)-N-(3-(1-((7-methyl-5H-pyrrolo[2,3-b]pyrazin-2-yl)amino)ethyl)phenyl)-1H-pyrazole-4-carboxamide]: the IC50 in test [1] and in test [2] was below 300 nM each time.

On to `CCn1cc2ncc(N[C@@H](C)c3cccc(NC(=O)c4cc(Cl)c(Cl)s4)c3)nc2n1` [Compound 357, (S)-4,5-dichloro-N-(3-(1-((2-ethyl-2H-pyrazolo[3,4-b]pyrazin-6-yl)amino)ethyl)phenyl)thiophene-2-carboxamide], for which the IC50 in test [1] and in test [2] was below 300 nM in each case.

In the case of `Cc1cc(C(=O)Nc2cccc([C@H](C)Nc3cnc4cnn(C)c4n3)c2)cnc1F` [Compound 192, (S)-6-fluoro-5-methyl-N-(3-(1-((1-methyl-1H-pyrazolo[3,4-b]pyrazin-6-yl)amino)ethyl)phenyl)nicotinamide], the IC50 in test [1] and in test [2] was below 300 nM each time.

On to `CCn1cc2ncc(N[C@@H](C)c3cccc(NC(=O)c4ccc(CN5CCC(F)(F)CC5)c(C)c4)c3)nc2n1` [Compound 476, (S)-4-((4,4-difluoropiperidin-1-yl)methyl)-N-(3-(1-((2-ethyl-2H-pyrazolo[3,4-b]pyrazin-6-yl)amino)ethyl)phenyl)-3-methylbenzamide], for which the IC50 is below 300 nM in test [1] and 300 to 1000 nM in test [2].

Consider `CCn1cc2ncc(N[C@@H](C)c3cccc(NC(=O)Cc4cc(F)ccc4F)c3)nc2n1` [Compound 640, (S)-2-(2,5-difluorophenyl)-N-(3-(1-((2-ethyl-2H-pyrazolo[3,4-b]pyrazin-6-yl)amino)ethyl)phenyl)acetamide], for which the results for the IC50 in test [1] and in test [2] were below 300 nM and 300 to 1000 nM, respectively.

`CCn1cc2ncc(N[C@@H](C)c3cccc(NC(=O)Cc4ccc(Cl)c(F)c4)c3)nc2n1` [Compound 627, (S)-2-(4-chloro-3-fluorophenyl)-N-(3-(1-((2-ethyl-2H-pyrazolo[3,4-b]pyrazin-6-yl)amino)ethyl)phenyl)acetamide]: the concentration for half-maximal inhibition (IC50) in test [1] was below 300 nM; in test [2], 300 to 1000 nM.

As to `COc1ccc2nc(N[C@@H](C)c3cccc(NC(=O)c4cncc(C)c4)c3)cnc2c1` [Compound 33, (S)-N-(3-(1-((6-methoxyquinoxalin-2-yl)amino)ethyl)phenyl)-5-methylnicotinamide], the IC50 in test [1] and in test [2] was below 300 nM in each case.

Regarding `CCn1cc2ncc(N[C@@H](C)c3cccc(NC(=O)c4ccc(CN5CC6(CN(C)C6)C5)c(C)c4)c3)nc2n1` [Compound 473, (S)-N-(3-(1-((2-ethyl-2H-pyrazolo[3,4-b]pyrazin-6-yl)amino)ethyl)phenyl)-3-methyl-4-((6-methyl-2,6-diazaspiro[3.3]heptan-2-yl)methyl)benzamide], the IC50 in test [1] and in test [2] was below 300 nM each time.

Regarding `C[C@H](Nc1cnc2cnn(C)c2n1)c1cccc(NC(=O)c2cncc(C(C)(C)F)c2)c1` [Compound 108, (S)-5-(2-fluoropropan-2-yl)-N-(3-(1-((1-methyl-1H-pyrazolo[3,4-b]pyrazin-6-yl)amino)ethyl)phenyl) nicotinamide], the IC50 in test [1] and in test [2] was below 300 nM in each case.

What is called IC50 is the midpoint of a concentration-inhibition curve.
